Source: PubChem BioAssay (NCI)
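Compound exposure: 48 hours, 5 concentrations, 96-well plates. Here, GI50 denotes the concentration required for 50% inhibition of growth. TGI: concentration producing complete growth inhibition.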

What was measured:
Test in all cases: inhibition of tumour cell growth, NCI panel, 48 h
[1] = tested on: CCRF-CEM leukemia
[2] = tested on: HOP-62 NSCLC
[3] = tested on: A498 renal
[4] = tested on: MDA-MB-231 breast
[5] = tested on: HOP-92 NSCLC
[6] = tested on: UACC-62 melanoma
[7] = tested on: KM12 colon
[8] = tested on: M14 melanoma
[9] = tested on: LOX IMVI melanoma
[10] = tested on: MCF7 breast
[11] = tested on: CAKI-1 renal
[12] = tested on: OVCAR-3 ovarian
[13] = tested on: NCI-H226 lung
[14] = tested on: HCC-2998 colon
[15] = tested on: SNB-75 CNS
[16] = tested on: MALME-3M melanoma
[17] = tested on: RPMI-8226 leukemia
[18] = tested on: BT-549 breast
[19] = tested on: DU-145 prostate
[20] = tested on: SF-268 CNS
[21] = tested on: SNB-19 CNS
[22] = tested on: 786-0 renal
[23] = tested on: K-562 leukemia
[24] = tested on: A549 NSCLC
[25] = tested on: HCT-116 colon
[26] = tested on: SF-295 CNS
[27] = tested on: SF-539 CNS
[28] = tested on: SK-MEL-5 melanoma
[29] = tested on: HS 578T breast
[30] = tested on: U251 CNS
[31] = tested on: NCI-H522 lung
[32] = tested on: MDA-MB-435
[33] = tested on: OVCAR-4 ovarian
[34] = tested on: ACHN renal
[35] = tested on: OVCAR-5 ovarian
[36] = tested on: MDA-MB-468 breast
[37] = tested on: HL-60(TB) leukemia
[38] = tested on: SW-620 colon
[39] = tested on: UACC-257 melanoma
[40] = tested on: COLO 205 colon
[41] = tested on: MOLT-4 leukemia
[42] = tested on: SK-MEL-2 melanoma
[43] = tested on: SK-OV-3 ovarian
[44] = tested on: RXF 393 renal
[45] = tested on: SK-MEL-28 melanoma
[46] = tested on: TK-10 renal
[47] = tested on: NCI-H23 lung
[48] = tested on: IGROV1 ovarian
[49] = tested on: SN12C renal
[50] = tested on: EKVX NSCLC
[51] = tested on: PC-3 prostate
[52] = tested on: HCT-15 colon
[53] = tested on: NCI/ADR-RES ovarian
[54] = tested on: UO-31 renal
[55] = tested on: OVCAR-8 ovarian

## O=C(NN1C(=O)/C(=C/C=C/c2ccc([N+](=O)[O-])o2)SC1=S)c1ccc(O)cc1
[1]
  GI50: 195 nM
  TGI: 1810 nM
[2]
  GI50: 1890 nM
  TGI: 3.6 µM
[3]
  GI50: 18.8 µM
  TGI: 32.8 µM
[4]
  GI50: 399 nM
  TGI: 1420 nM
[5]
  GI50: 1630 nM
  TGI: 3.69 µM
[6]
  GI50: 1050 nM
  TGI: 2260 nM
[7]
  GI50: 1930 nM
  TGI: 4.29 µM
[8]
  GI50: 316 nM
  TGI: 1350 nM
[9]
  GI50: 185 nM
  TGI: 358 nM
[10]
  GI50: 1410 nM
  TGI: 3.19 µM
[11]
  GI50: 1500 nM
  TGI: 2900 nM
[12]
  GI50: 1680 nM
  TGI: 3.14 µM
[13]
  GI50: 690 nM
  TGI: 2280 nM
[14]
  GI50: 1780 nM
  TGI: 3.32 µM
[15]
  GI50: 1310 nM
  TGI: 4.38 µM
[16]
  GI50: 246 nM
  TGI: 558 nM
[17]
  GI50: 713 nM
  TGI: 5.34 µM
[18]
  GI50: 1360 nM
  TGI: 2790 nM
[19]
  GI50: 2350 nM
  TGI: 5.79 µM
[20]
  GI50: 1970 nM
  TGI: 4.34 µM
[21]
  GI50: 1920 nM
  TGI: 3.9 µM
[22]
  GI50: 1780 nM
  TGI: 3.27 µM
[23]
  GI50: > 100 µM
  TGI: > 100 µM
[24]
  GI50: 3.78 µM
  TGI: 16.3 µM
[25]
  GI50: 382 nM
  TGI: 1570 nM
[26]
  GI50: 2040 nM
  TGI: 4.59 µM
[27]
  GI50: 1660 nM
  TGI: 3.12 µM
[28]
  GI50: 1120 nM
  TGI: 2340 nM
[29]
  GI50: 2520 nM
  TGI: 8.64 µM
[30]
  GI50: 1750 nM
  TGI: 3.52 µM
[31]
  GI50: 217 nM
  TGI: 498 nM
[32]
  GI50: 1130 nM
  TGI: 2510 nM
[33]
  GI50: 1860 nM
  TGI: 4.22 µM
[34]
  GI50: 1770 nM
  TGI: 3.22 µM
[35]
  GI50: 1800 nM
  TGI: 3.53 µM
[36]
  GI50: 1720 nM
  TGI: 3.58 µM
[37]
  GI50: > 100 µM
  TGI: > 100 µM
[38]
  GI50: 307 nM
  TGI: 996 nM
[39]
  GI50: 1690 nM
  TGI: 3.5 µM
[40]
  GI50: 1730 nM
  TGI: 3.35 µM
[41]
  GI50: > 100 µM
  TGI: > 100 µM
[42]
  GI50: 1420 nM
  TGI: 2990 nM
[43]
  GI50: 2490 nM
  TGI: 5.96 µM
[44]
  GI50: 1560 nM
  TGI: 2990 nM
[45]
  GI50: 1670 nM
  TGI: 3.1 µM
[46]
  GI50: 1830 nM
  TGI: 3.51 µM
[47]
  GI50: 1270 nM
  TGI: 2690 nM
[48]
  GI50: 1460 nM
  TGI: 2820 nM
[49]
  GI50: 344 nM
  TGI: 1630 nM
[50]
  GI50: 1570 nM
  TGI: 3.19 µM
[51]
  GI50: 2370 nM
  TGI: 7.23 µM
[52]
  GI50: 212 nM
  TGI: 499 nM
[53]
  GI50: 2200 nM
  TGI: 5.21 µM
[54]
  GI50: 1510 nM
  TGI: 2910 nM
[55]
  GI50: 1300 nM
  TGI: 3.4 µM
